Key:
[1] = target: T1, Gamma-aminobutyric acid receptor subunit alpha-1/beta-3/gamma-2 (Mus musculus, UniProt P22723+P62812+P63080); assay: Positive allosteric modulation of C57BL/6 mouse GABAA receptor alpha1beta3gamma2 assessed as increase in GABA-induced current response at -60 mV holding potential by whole cell patch-clamp method relative to GABA; format: protein-complex assay
[2] = target: T2, Glycine receptor alpha-3/beta (Homo sapiens, UniProt O75311+P48167); assay: Positive allosteric modulation of human glycine alpha3beta receptor expressed in HEK293T cells assessed as glycine-induced increase in current response after 18 to 24 hrs by membrane potential blue dye based FLIPR assay; format: cell-based
[3] = target: Glycine receptor (alpha-1/beta) (Homo sapiens, UniProt P23415+P48167); assay: Positive allosteric modulation of human glycine alpha1beta receptor expressed in HEK293T cells assessed as glycine-induced increase in current response after 18 to 24 hrs by membrane potential blue dye based FLIPR assay; format: cell-based
[4] = target: T3, Neuronal acetylcholine receptor; alpha4/beta2 (Homo sapiens, UniProt P17787+P43681); assay: Agonist activity at alpha4beta2 nAChR (unknown origin); format: protein-complex assay
[5] = target: Gamma-aminobutyric acid receptor subunit alpha-1/beta-2/gamma-2 (Mus musculus, UniProt P22723+P62812+P63137); assay: Positive allosteric modulation of C57BL/6 mouse GABAA receptor alpha1beta2gamma2 assessed as increase in GABA-induced current response at -60 mV holding potential by whole cell patch-clamp method relative to GABA; format: protein-complex assay
[6] = target: T4, 5-hydroxytryptamine receptor 3A (Homo sapiens, UniProt P46098); assay: Inhibition of 5-HT3 receptor (unknown origin)
T4 sequence (P46098 whole entry): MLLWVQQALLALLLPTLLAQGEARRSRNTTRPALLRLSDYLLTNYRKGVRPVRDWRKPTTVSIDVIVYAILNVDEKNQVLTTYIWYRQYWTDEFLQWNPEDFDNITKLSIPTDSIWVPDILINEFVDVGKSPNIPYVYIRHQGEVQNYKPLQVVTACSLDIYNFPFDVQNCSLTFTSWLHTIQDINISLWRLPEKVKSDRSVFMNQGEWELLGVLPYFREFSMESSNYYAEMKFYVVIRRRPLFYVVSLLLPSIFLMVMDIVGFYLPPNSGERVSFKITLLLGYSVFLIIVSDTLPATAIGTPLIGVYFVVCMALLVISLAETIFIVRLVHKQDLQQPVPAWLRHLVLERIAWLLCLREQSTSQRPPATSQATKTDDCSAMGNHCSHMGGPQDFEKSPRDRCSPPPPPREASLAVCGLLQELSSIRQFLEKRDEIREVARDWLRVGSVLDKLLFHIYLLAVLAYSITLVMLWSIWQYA

[7] = target: T3, Neuronal acetylcholine receptor; alpha4/beta2; assay: Inhibition of alpha4beta2 nAChR (unknown origin); format: protein-complex assay
[8] = target: T1, Gamma-aminobutyric acid receptor subunit alpha-1/beta-3/gamma-2; assay: Inhibition of C57BL/6 mouse GABAA receptor alpha1beta3gamma2; format: protein-complex assay
[9] = target: T2, Glycine receptor alpha-3/beta; assay: Positive allosteric modulation of human glycine alpha3beta receptor expressed in HEK293T cells assessed as potentiation of glycine-induced increase in current response after 18 to 24 hrs by membrane potential blue dye based FLIPR assay relative to glycine; format: cell-based
[10] = target: T5, Glycine receptor subunit alpha-1 (Homo sapiens, UniProt P23415); assay: Positive allosteric modulation of human glycine alpha1 receptor expressed in HEK293T cells assessed as glycine-induced increase incurrent response after 18 to 24 hrs by membrane potential blue dye based FLIPR assay; format: cell-based
T5 sequence (P23415 whole entry): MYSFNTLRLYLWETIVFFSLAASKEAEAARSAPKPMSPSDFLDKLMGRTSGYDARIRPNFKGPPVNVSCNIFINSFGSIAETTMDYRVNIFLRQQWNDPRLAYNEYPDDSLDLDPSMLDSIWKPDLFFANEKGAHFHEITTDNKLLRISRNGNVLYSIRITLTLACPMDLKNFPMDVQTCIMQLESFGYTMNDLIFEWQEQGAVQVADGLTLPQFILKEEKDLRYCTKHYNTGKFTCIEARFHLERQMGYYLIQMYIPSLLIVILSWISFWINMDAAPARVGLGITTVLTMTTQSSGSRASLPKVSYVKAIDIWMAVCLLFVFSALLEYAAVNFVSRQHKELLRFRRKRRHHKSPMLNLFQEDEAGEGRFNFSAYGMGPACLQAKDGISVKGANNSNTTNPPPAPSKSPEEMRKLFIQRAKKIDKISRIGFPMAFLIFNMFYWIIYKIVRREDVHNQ

[11] = target: T4, 5-hydroxytryptamine receptor 3A; assay: Agonist activity at 5-HT3 receptor (unknown origin)

T1 sequence (P22723 whole entry): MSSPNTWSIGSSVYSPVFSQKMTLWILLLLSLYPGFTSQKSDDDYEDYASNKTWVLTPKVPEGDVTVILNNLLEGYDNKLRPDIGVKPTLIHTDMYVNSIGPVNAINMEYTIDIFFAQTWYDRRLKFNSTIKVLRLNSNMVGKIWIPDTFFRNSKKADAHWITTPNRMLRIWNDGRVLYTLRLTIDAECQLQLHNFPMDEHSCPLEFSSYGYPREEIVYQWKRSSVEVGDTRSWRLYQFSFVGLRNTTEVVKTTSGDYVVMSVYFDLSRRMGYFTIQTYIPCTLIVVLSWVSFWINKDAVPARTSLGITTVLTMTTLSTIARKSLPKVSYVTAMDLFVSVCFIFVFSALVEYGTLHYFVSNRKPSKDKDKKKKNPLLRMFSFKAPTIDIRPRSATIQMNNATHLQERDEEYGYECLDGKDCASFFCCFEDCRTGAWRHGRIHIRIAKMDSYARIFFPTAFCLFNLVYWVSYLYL
T1 sequence (P62812 whole entry): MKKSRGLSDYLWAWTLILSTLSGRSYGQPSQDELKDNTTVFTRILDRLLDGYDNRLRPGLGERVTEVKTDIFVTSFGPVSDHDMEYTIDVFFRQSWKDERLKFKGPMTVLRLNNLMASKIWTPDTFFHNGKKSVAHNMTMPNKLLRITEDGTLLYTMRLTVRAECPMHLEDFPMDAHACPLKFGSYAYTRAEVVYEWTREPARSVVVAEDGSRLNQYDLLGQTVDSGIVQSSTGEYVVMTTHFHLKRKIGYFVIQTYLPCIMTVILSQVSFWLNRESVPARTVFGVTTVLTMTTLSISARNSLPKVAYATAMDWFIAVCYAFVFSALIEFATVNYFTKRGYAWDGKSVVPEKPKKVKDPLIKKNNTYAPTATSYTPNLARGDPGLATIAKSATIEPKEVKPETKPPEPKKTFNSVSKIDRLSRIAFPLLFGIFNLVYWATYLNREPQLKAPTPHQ
T1 sequence (P63080 whole entry): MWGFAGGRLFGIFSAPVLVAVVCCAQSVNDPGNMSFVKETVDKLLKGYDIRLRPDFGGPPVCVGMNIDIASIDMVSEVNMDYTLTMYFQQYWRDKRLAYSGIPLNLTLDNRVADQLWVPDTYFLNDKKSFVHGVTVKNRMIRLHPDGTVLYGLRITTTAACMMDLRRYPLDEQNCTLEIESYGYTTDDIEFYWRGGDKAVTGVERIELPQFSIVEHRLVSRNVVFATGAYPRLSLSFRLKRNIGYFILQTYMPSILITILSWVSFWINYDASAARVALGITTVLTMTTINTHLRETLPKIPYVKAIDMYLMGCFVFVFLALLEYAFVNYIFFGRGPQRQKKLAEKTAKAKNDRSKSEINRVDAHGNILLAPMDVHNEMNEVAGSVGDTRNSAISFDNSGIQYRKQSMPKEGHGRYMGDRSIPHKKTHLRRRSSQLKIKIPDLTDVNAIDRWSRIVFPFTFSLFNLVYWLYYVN
T3 sequence (P17787 whole entry): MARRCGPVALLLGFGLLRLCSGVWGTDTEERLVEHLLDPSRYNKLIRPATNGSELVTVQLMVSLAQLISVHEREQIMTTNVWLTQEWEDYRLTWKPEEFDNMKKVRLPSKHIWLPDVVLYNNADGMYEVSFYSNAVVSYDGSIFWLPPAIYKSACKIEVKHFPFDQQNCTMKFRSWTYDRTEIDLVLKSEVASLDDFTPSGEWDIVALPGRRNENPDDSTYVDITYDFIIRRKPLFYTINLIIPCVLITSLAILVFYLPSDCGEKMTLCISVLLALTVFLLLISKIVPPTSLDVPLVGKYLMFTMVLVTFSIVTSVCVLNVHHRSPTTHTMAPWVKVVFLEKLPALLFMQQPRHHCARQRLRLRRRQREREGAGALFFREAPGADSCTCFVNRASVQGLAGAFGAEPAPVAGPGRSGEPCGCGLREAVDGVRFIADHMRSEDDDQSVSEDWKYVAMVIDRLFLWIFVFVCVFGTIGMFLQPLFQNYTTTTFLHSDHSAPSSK
T3 sequence (P43681 whole entry): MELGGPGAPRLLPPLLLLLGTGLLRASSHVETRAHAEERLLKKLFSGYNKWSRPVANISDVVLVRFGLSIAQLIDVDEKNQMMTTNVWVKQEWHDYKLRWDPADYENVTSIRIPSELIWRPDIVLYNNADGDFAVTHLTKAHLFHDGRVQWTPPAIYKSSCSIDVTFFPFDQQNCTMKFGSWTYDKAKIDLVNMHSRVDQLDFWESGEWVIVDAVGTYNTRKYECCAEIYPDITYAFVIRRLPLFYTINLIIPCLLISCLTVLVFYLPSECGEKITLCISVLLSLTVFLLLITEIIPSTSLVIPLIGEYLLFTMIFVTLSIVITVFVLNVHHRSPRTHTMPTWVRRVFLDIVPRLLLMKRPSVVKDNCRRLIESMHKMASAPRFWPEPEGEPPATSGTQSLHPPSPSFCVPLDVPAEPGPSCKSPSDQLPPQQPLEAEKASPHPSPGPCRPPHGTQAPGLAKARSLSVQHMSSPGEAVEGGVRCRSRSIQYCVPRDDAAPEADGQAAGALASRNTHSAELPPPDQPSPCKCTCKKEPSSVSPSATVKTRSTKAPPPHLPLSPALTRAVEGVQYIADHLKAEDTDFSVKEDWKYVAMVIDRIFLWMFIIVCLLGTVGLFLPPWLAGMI
T2 sequence (O75311 whole entry): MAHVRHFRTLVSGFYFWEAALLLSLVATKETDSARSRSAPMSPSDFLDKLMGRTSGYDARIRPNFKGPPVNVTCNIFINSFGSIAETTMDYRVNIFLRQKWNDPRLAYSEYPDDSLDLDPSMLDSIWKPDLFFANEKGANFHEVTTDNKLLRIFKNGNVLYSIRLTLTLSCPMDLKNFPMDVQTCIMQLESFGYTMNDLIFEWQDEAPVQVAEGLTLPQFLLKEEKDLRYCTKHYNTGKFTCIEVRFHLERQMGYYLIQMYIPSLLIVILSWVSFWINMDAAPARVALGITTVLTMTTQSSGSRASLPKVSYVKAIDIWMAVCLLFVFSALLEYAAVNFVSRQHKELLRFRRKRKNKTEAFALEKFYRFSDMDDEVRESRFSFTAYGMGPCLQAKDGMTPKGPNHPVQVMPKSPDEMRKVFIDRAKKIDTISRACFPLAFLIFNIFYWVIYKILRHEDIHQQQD
T2 sequence (P48167 whole entry): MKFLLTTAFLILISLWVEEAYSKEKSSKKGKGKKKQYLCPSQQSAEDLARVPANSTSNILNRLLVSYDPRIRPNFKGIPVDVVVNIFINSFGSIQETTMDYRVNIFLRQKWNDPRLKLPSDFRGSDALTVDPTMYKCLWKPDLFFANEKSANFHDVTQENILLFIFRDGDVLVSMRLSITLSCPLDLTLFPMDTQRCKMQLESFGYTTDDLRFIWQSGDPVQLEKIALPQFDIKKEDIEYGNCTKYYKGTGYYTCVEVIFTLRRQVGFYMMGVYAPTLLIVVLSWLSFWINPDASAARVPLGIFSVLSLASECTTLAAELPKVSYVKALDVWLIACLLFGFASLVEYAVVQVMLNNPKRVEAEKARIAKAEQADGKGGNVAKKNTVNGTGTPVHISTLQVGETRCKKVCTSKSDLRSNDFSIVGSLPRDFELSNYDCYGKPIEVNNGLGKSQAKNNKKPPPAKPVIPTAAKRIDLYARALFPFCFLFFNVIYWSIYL
Glycine receptor (alpha-1/beta), sequence (P48167 whole entry, one chain of several): as the sequence (P48167 whole entry) above
Gamma-aminobutyric acid receptor subunit alpha-1/beta-2/gamma-2, sequence (P22723 whole entry): as the sequence (P22723 whole entry) above
Gamma-aminobutyric acid receptor subunit alpha-1/beta-2/gamma-2, sequence (P62812 whole entry): as the sequence (P62812 whole entry) above
Gamma-aminobutyric acid receptor subunit alpha-1/beta-2/gamma-2, sequence (P63137 whole entry): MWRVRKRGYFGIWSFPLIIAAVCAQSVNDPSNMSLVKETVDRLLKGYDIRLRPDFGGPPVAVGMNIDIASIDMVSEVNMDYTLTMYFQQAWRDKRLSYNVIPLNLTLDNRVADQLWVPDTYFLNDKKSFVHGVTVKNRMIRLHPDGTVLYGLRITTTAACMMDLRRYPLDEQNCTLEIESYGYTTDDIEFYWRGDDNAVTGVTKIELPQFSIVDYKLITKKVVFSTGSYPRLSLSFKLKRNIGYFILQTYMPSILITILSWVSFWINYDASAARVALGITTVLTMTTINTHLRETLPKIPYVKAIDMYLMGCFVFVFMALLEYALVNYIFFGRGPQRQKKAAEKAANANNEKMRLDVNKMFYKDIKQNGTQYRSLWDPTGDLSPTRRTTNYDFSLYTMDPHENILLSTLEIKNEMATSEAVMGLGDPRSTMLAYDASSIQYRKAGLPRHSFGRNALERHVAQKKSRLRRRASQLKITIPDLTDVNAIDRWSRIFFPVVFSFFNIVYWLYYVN

For `C[C@H]1[C@H]2C(=O)N(C)c3ccncc3[C@H]2CN1S(=O)(=O)c1ccc2c(c1)OCO2`, the EC50 [1] was > 30 µM, the EC50 [2] was 0.066 µM and the EC50 [3] was 0.016 µM. The EC50 [4] was > 25 µM, the EC50 [5] was > 50 µM and the IC50 [6] was > 30 µM. For the same compound, the IC50 [7] was > 25 µM, the IC50 [8] was > 30 µM and the fold change (FC) [9] was 11. For the same compound, the EC50 [10] was 0.032 µM and the EC50 [11] was > 25 µM.
